For one test, the target named is T1, human GALR2 (Homo sapiens, UniProt O43603).
T1 construct: host or cells: HEK293 cells stably expressing Gqi
T1 sequence (O43603 1-387): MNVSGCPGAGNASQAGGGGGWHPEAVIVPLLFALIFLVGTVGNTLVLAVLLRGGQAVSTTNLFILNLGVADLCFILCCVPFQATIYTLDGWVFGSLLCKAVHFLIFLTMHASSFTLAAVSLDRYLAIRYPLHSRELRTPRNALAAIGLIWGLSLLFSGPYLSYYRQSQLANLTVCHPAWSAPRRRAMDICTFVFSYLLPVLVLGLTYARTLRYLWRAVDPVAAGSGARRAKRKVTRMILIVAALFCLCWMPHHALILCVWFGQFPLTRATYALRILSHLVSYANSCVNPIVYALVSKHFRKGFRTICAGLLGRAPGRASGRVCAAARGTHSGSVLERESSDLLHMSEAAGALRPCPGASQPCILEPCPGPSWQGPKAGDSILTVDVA
Briefly: SRE-luc luciferase assay, WT GALR2. In kind it is cell-based. Particulars: SRE-luc in HEK293 Gqi cells, ligand 6 h, mean ± SE, at least three independent experiments, SEM. An excerpt:
The pcDNA3.1 vector was purchased from Invitrogen (San Diego, CA, USA). The serum response element (SRE)-luciferase (SRE-luc) vector containing a single copy of the SRE (CCATATTAGG) conjugated with luciferase was purchased from Stratagene (La Jolla, CA, USA). The cDNAs for human GALR1, GALR2, and GALR3 were obtained from BRN SCIENCE, Inc. The cDNAs were inserted into the EcoRⅠ and XhoⅠ sites of pcDNA3.1.
HEK293 cells stably expressing the Gqi construct, which allows induction of Gq-dependent signaling pathways upon activation of a Gi-coupled receptor [14, 30], were maintained in Dulbecco's Modified Eagle's Medium (DMEM) in the presence of 10% fetal bovine serum and 1% penicillin and streptomycin. For all transfections, 200 ng DNA (100 ng receptor and 100 ng SRE-luc) mixed with lipofectamine 2000 was applied to 60–80% confluent cells on a multi-well plate according to the manufacturer's instructions (Invitrogen, Carlsbad, CA).
For luciferase assays, HEK293 Gqi cells were seeded on 48-well plates at a density of 2.5 × 10^4 cells/well one day before transfection. A mixture including 100 ng SRE-luc reporter construct, 100 ng expression plasmid, and lipofectamine 2000 reagent in diluted Opti-MEM (Gibco) was incubated at room temperature for 20 min and then added into each well according to the manufacturer's instructions (Invitrogen, CA, USA). Before exposure to the ligands, the cells were maintained in serum-free DMEM for 16–18 h. Approximately 48 h after transfection, the cells were treated with ligand for 6 h. The cells were then lysed by the addition of 100 μl lysis buffer. The luciferase activity in 50 μl cell extract was determined using a luciferase assay system according to the standard protocol for the Synergy 2 Multi-Mode Microplate Reader (BioTek, Winooski, VT, USA).
Data analysis was performed by non-linear regression with a sigmoidal dose-response curve. The concentrations of agonists that induced half-maximal stimulation (EC50) were calculated using the GraphPad PRISM5 software (GraphPad software, Inc., San Diego, CA). All data are presented as the mean ± standard error (SE) of at least three independent experiments.

The target in test [1] is T2, GALR3 triple mutant L^100F, Y^103F, Y^107H (Homo sapiens, UniProt O60755, L100F/Y103F/Y107H).
T2 construct: expressed in transfected cells; host or cells: HEK293 cells stably expressing Gqi
T2 sequence (O60755 1-368 L100F/Y103F/Y107H): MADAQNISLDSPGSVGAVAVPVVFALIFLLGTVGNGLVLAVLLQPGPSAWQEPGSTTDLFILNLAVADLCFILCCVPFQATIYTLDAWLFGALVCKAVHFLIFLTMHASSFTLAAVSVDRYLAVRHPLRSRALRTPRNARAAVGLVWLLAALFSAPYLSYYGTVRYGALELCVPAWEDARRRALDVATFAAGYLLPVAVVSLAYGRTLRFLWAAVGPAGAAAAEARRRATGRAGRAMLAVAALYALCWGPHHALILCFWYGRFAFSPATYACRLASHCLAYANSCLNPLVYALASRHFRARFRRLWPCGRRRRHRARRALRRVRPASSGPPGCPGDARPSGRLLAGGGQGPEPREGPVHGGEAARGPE
Kind of test: SRE-luc luciferase assay, GALR3 L100F,Y103F,Y107H. In kind it is cell-based. As to conditions: GALR3 L^100F, SRE-luc in HEK293 Gqi cells, ligand 6 h, mean ± S.E., SEM. An excerpt: For domain swapping between GALR2 and GALR3, individual cDNA fragments of interest were amplified by polymerase chain reaction (PCR) with Pfu polymerase (ELPIS Biotech, Daejeon, Korea) and two specific primers, one corresponding to the 5' or 3' end of the GALR2 or GALR3 cDNA and the other to the region of overlap between the two receptors. The two resulting fragments, one from GALR2 and the other from GALR3, were subjected to a second round of PCR to generate the chimeric cDNAs. To construct single, double-, triple-, pentuple-, hextuple-, and septuple-mutant receptors, amino acids of GALR3 were substituted for the amino acids at the corresponding positions in GALR2 using PCR-based site-directed mutagenesis. All of the chimeric constructs were cloned into the pcDNA3 expression vector at HindⅢ and XbaⅠ sites. The DNA sequences of the chimeras were verified by automatic sequencing. HEK293 cells stably expressing the Gqi construct, which allows induction of Gq-dependent signaling pathways upon activation of a Gi-coupled receptor [14, 30], were maintained in Dulbecco's Modified Eagle's Medium (DMEM) in the presence of 10% fetal bovine serum and 1% penicillin and streptomycin. For all transfections, 200 ng DNA (100 ng receptor and 100 ng SRE-luc) mixed with lipofectamine 2000 was applied to 60–80% confluent cells on a multi-well plate according to the manufacturer's instructions (Invitrogen, Carlsbad, CA). For luciferase assays, HEK293 Gqi cells were seeded on 48-well plates at a density of 2.5 × 10^4 cells/well one day before transfection. […] The luciferase activity in 50 μl cell extract was determined using a luciferase assay system according to the standard protocol for the Synergy 2 Multi-Mode Microplate Reader (BioTek, Winooski, VT, USA). […] The concentrations of agonists that induced half-maximal stimulation (EC50) were calculated using the GraphPad PRISM5 software (GraphPad software, Inc., San Diego, CA). […]

Ends that are not written are not given here.

For the compound NWTPQAALYLKGAQ-NH2 [A^7-SPX], the results for the concentration for a half-maximal effect (EC50) (on human GALR2; in test [1]) were 40.7 ± 13.2 nM and 64.6 ± 12.1 nM, respectively.
Take NWTPNAMLYLKGAQ-NH2 [N^5-SPX]: the EC50 on human GALR2 amounted to 87.7 ± 10.6 nM; in test [1], 83.2 ± 26.9 nM.
In the case of `CSCC[C@H](NC(=O)[C@H](C)NC(=O)[C@H](CCC(N)=O)NC(=O)[C@@H]1CCCN1C(=O)[C@@H](NC(=O)[C@H](Cc1c[nH]c2ccccc12)NC(=O)[C@@H](N)CC(N)=O)[C@@H](C)O)C(=O)N[C@@H](CC(C)C)C(=O)N[C@@H](Cc1ccc(O)cc1)C(=O)N[C@@H](CC(C)C)C(=O)N[C@@H](CCCCN)C(=O)NCC(=O)N[C@@H](C)C(=O)N[C@@H](CCC(N)=O)C(N)=O` [SPX, reference compound], in test [1], the EC50 was determined as 30.9 ± 9.03 nM.
In the case of NWTPQAMLYLKGPQ-NH2 [P^13-SPX], the half-maximal effective concentration (EC50) on human GALR2 is 33.1 ± 6.19 nM.

For the origin of these results see publication PMC7108740, “Exploring the molecular structures that confer ligand selectivity for galanin type II and III receptors” (PLoS ONE, 2020).
